How the values were obtained:
[1] = system: N. europaea cells; experiment: Oxygen consumption rate of N. europaea whole cells (Oroboros oxygraph); format: cell-based, Nitrosomonas europaea; conditions: 25° C.
Description: To begin to understand the mechanism of action of 4-Ethynylanisole the oxygen consumption rate was measured utilising an Oroborus oxygraphy-2k (Oroboros Instruments). Prior to the experiment, N. europaea cells were grown in ATCC 2265 medium for four days. After which time whole cells of N. europaea were washed extensively as previously described and re-suspended in ATCC 2265 wash buffer (no ammonium) to an OD600 of 0.25. Prior to each experiment being initiated by the addition of a metabolizable energy source (ammonium or hydroxyl amine), the oxygen concentration in the assay suspension (2 ml of cells at OD600 of 0.25) was equilibrated for 2-3 min with air until a stable signal was obtained. Under normal experimental conditions this typically yielded an oxygen concentration of approximately 220 μM. After the oxygen concentration had stabilised in the Oroborus oxygraphy-2k reaction cell, rubber stoppers were subsequently inserted to enclose the system. To initiate respiration, ammonium sulphate (12.5 mM) or hydroxyl amine (6.25 mM) were injected directly into washed cell suspension of N. europaea. […] All measurements were made at 25° C. with stirring at 750 rpm and a data recording interval of 1 s^−1.

[2] = system: nitrification; experiment: Table 1 summary: compounds found to work or not work as nitrification inhibitors, Inhib(%); set-up: concentration or dose not given beside the values; conditions: test and rate not given
Description: The phenotypic screening involved assessing the nitrification inhibition potency of the selected 5000 compounds against a key ammonia oxidizing bacterium responsible for ammonia oxidation in the soil, Nitrosomonas europaea, in 96-well microtiter plates. N. europaea cells were grown in the presence of an ammonium source, and the potential of putative nitrification inhibitors to inhibit the production of nitrite (NO2) was measured relative to untreated cells.
A summary of selected compounds initially found to either work or not work as nitrification inhibitors is detailed in Table 1 below.

`C#Cc1ccc(OC)cc1` [4-Ethynylanisole, 1-ethynyl-4-methoxybenzene] was tested, and the ammonium-driven oxygen consumption ([1]; ammonium sulphate 12.5 mM) was “reduced to zero”, the “hydroxylamine (H3NO)-driven oxygen consumption” value ([1]; hydroxyl amine 6.25 mM) was “not affected” and the “Inhib(%)” value [2] was 100%.

Source: patent publication US11578013B2, “Nitrification inhibitors” (Lincoln University, priority 2020, dated 2023)
